“And” between values parts separate entries of the source, which are not always exact repeats. Identical values can stand only once. Like-named read-outs stand apart in the source and are kept apart here.
Tests used:
[1] = Pharmacokinetics in rats, IV bolus and bolus plus infusion
ICR mice = assay: In vivo sedative/hypnotic testing, IV bolus, mice; design: species or system mouse; details: mice
Protocol: Animals were housed in a dedicated room at the vivarium of VivoPath Inc., located at Redstone Center, 55 Union Street, Worcester, Mass. Housing and care was as specified in the USDA Animal Welfare Act (9 CFR, Parts 1, 2, and 3) and as described in the Guide for the Care and Use of Laboratory Animals from the National Research Council. Environmental conditions of housing rooms are set at the following ranges: temperature: 70±7° F. (22±4° C.), humidity: 50±20%, light cycle: 12-hour light/12-hour dark cycle—lights on at 7 am and off at 7 pm., air changes: ten or more air changes per hour with 100% fresh air. The animals' body weights were measured prior to the first dose on each experimental day.
Adult ICR mice (20-30 g) were purchased from Harlan (South Easton, Mass.). Drugs were administered as intravenous bolus injection in a tail vein.
Drugs were prepared in either dimethylsulfoxide/saline or saline vehicle or hydroxypropyl-β-cyclodextrin (20% in water, pH 7.0) solution and were administered as an intravenous bolus injection. Animals received 1-4 doses of drug(s) during an experimental day, either ascending doses or different drugs. Doses were administered at intervals equal to the longer of 1 h or 10-times the duration of apparent sedative/hypnotic effects from the previous dose. The sedative/hypnotic properties of the drugs were evaluated by observation of the rats, ranging from mild excitation, mild sedation apparent due to reduced activity, and moderate sedation to hypnosis reflected by loss of righting reflex (LORR, the ability to place rear and hind legs under the body, as well as attenuation/loss of nociceptive reflexes).

[2] = Pharmacokinetics in dogs, IV bolus and bolus plus infusion; format: in vivo, dog
[3] = in vivo
[4] = In vitro metabolic half-life of hypnotics in rat blood; format: in vitro ADME; details: rat
Protocol: On the day of study, whole blood was drawn from the femoral venous catheters of 3 Sprague-Dawley rats (1-2 ml/rat), immediately anticoagulated with heparin (38 U), pooled, and stored on ice. A 1 ml aliquot of blood was warmed at 37° C. for 5 minutes and hypnotic (from a 40 mM in dimethyl sulfoxide stock solution) was added to a final concentration of 100 μM. After the desired incubation time, a 150 μl sample was removed and the metabolic reaction was quenched with 150 μl acetonitrile (Sigma-Aldrich, St. Louis, Mo.). Zero time point samples were prepared by adding 150 μl acetonitrile to blood prior to adding hypnotic (from a 4 mM in dimethyl sulfoxide stock solution). The quenched samples were centrifuged and the resultant supernatant separated and stored at −20° C. until analyzed. Hypnotic concentrations in thawed samples were determined by high performance liquid chromatography using a Varian Prostar system with a 4.6×250 mm Proto 300 C18 column (Nest Group, Southborough, Mass.) with the UV detector set at 240 nm.

[5] = tested on: 68 receptors, ion channels and transporters; assay: radioligand binding screen; details: 10 μM, each radioligand
rats = assay: loss of righting reflexes (LORR) assay after IV bolus
Protocol: Adult male Sprague-Dawley rats (230-350 gm) were purchased from Charles River Laboratories (Wilmington, Mass.) and housed in the Massachusetts General Hospital Center for Comparative Medicine animal care facility. All drugs were administered through a femoral venous catheter pre-implanted by the vendor prior to animal delivery to our animal care facility.
Immediately after injection, rats were turned supine. […] A stopwatch was used to measure the duration of LORR, which was defined as the time from drug injection until the animal spontaneously righted itself.

GABAA receptor channel = assay: radioligand binding to the GABAA receptor channel; details: 10 μM
[6] = molecular target: T1, human α1(L264T), β2 and γ2L subunits of the GABAA receptor (Homo sapiens, UniProt P14867+P47870, L291T); assay: GABAA receptor current in Xenopus oocytes, 2-electrode voltage clamp; format: cell-based
T1 construct: expressed in transfected cells; host or cells: Xenopus oocytes
T1 sequence (P14867 28-456 L291T): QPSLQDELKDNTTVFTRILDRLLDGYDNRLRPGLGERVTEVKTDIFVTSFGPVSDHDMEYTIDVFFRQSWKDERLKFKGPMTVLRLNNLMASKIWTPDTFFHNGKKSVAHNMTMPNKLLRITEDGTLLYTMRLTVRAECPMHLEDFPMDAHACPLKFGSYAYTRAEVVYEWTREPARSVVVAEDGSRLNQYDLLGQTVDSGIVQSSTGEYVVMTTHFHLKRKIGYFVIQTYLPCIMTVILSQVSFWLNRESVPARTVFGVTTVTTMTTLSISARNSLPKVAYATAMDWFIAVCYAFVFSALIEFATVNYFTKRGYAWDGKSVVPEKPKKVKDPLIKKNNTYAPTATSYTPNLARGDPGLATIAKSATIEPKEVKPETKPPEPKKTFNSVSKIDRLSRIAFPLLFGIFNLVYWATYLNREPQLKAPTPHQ
T1 sequence (P47870 25-512 limits assumed): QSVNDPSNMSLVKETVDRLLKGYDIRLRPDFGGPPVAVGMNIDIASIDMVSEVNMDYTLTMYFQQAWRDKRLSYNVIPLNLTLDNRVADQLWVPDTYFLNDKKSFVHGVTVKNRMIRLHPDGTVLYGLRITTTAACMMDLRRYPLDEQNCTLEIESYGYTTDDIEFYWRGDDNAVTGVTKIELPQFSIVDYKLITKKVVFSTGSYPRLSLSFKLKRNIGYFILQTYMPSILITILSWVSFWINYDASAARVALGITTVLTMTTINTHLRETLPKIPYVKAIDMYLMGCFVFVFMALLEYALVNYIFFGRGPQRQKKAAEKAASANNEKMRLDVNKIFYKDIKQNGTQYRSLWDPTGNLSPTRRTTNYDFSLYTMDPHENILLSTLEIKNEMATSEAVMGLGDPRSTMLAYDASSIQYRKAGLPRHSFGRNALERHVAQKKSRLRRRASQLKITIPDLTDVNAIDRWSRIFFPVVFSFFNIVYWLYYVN
T1 sequence (P18507 40-475 partner): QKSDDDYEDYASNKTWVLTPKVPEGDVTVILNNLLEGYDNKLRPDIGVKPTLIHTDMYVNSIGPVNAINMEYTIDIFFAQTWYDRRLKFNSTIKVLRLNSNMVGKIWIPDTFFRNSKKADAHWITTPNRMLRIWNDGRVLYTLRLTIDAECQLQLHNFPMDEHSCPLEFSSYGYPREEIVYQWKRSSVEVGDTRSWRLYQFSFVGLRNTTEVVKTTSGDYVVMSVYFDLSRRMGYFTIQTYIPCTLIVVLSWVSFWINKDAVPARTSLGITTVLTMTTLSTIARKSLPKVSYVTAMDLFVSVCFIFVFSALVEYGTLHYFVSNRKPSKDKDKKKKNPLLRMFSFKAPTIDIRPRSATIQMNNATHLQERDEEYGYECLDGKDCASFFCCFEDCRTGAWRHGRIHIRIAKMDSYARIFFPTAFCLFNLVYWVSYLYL
Protocol: Cyclopropyl-MOC-metomidate induces anesthesia by acting as a positive allosteric modulator of the γ-aminobutyric acid (GABA) type A (GABAA) receptor. Cyclopropyl-MOC-metomidate and its principle metabolite, CPM-acid, were evaluated for their ability to potentiate activation of GABAA receptor current in Xenopus oocytes expressing the human α1(L264T), β2 and γ2L subunits of the GABAA receptor using established methods (Ge et al., 2011). The […] mutant was used rather than wild-type GABAA receptor because it is directly activated by anesthetics, allowing a simpler assessment of the drug potency without the need for concomitant activation by GABA. Anesthetic potency on this mutated GABAA receptor is similar to that on wild-type receptors. Currents were recorded using conventional 2-electrode voltage clamp technique at a holding potential of −50 mV. Oocytes were placed in a 0.04-mL recording chamber and constantly perfused at a rate of 4-6 mL/min. The current response to ABP-700 or CPM-acid was normalized to that produced by 100 μM GABA in the same oocyte and data presented as mean±SD from 3-6 oocytes.

[7] = Octanol:water partition coefficients; format: physicochemical; details: 10 mM Tris pH 7.4; read-out: Octanol/Water Partition Coefficient ± SD (converted)
Protocol: One mg of each hypnotic was added to 10 ml of water buffered with 10 mM Tris (pH 7.4) and 0.5 ml or 1 ml of octanol. The mixture was stirred overnight and then centrifuged to more fully separate the organic and aqueous phases. The relative hypnotic concentrations in each phase (i.e. the partition coefficient) were determined by high performance liquid chromatography as described for blood.

beagle dogs = tested on: beagle dogs
Protocol: A pilot study was conducted in dogs to assess anesthesia induced by cyclopropyl-MOC-metomidate continuous infusion without a bolus induction dosing. Two dogs received cyclopropyl-MOC-metomidate as a 1 mg/kg/min IV infusion without prior bolus administration.
Anesthesia induction was determined using the methods described above.
Etomidate was administered to dogs at IV bolus doses ranging from 0.25 to 2 mg/kg. Anesthesia in the dogs was measured as described above. […] The bolus dose of 2 mg/kg was adopted to induce anesthesia prior to subsequent continuous infusions.
Propofol was administered to dogs as an IV bolus dose of 5 mg/kg to induce anesthesia followed by a continuous infusion at 0.4 mg/kg/min.

[8] = bolus and continuous infusion, listed as cyclopropyl-MOC-metomidate
[9] = dogs, 4 mg/kg bolus or bolus plus 0.5 mg/kg/min for 30 or 120 minutes

For COC(=O)C1(OC(=O)c2cncn2[C@H](C)c2ccccc2)CC1 [Cyclopropyl- methoxycarbonyl metomidate, cyclopropyl-methoxycarbonyl metomidate], the “first-phase decline of levels” value ([1]; IV bolus 4-16 mg/kg, first 5 minutes) was over 10 fold, the “venous blood concentration when sedated/anesthetized” value [1, 8] was > 250 ng/mL and > 0.8 μM and the “decline of levels after discontinuation of infusion” value ([1]; first 30 minutes after 60-minute infusion) was about 50 fold. For the same compound, the “slope of duration of LORR vs logarithm of dose” value (ICR mice) was “approximately 7”, the “first-phase decline of levels” value ([2]; IV bolus 0.25-12 mg/kg, first 5-10 minutes) was over 10 fold and the “venous blood concentration when sedated/anesthetized” value [2, 8] was > 250 ng/mL and > 0.8 μM. The concentration at 24 h ([2]; both sexes, dog, in vivo, IV bolus, read-out: level in 24-hour PK samples (below level of quantification)) was under 0.1 ng/mL, the half-life ([2]; both sexes, dog, in vivo, IV bolus, read-out: secondary terminal elimination half-life) was 5 to 10 min and the half-life ([2]; dog, in vivo, read-out: half-life of secondary phase of decline after infusion) was about 20 min. The “decline of levels after discontinuation of infusion” value ([2]; first 10-30 minutes after infusion) was about 50 fold, the “plasma concentrations associated with anesthesia” value [3] was 200 to 3000 nM and the half-life at 100 μM ([4]; Sprague-Dawley, pooled heparinised whole blood, rat blood, 37° C., 100 μM, read-out: Blood Half-Life (95% CI)) was 0.57 min. The “in vitro metabolic half-life compared with methoxycarbonyl etomidate and etomidate” value [4] was “intermediate between those of methoxycarbonyl etomidate and etomidate”, the “inhibition of radioligand binding” value [5] was “no more than 25%” and the ED50 (rats; Rattus norvegicus, iv, read-out: ED50 ± SD) was 0.69 ± 0.04 mg/kg. The “hypnotic potency compared with methoxycarbonyl etomidate and etomidate” value (rats; rat, in vivo) was “nearly an order of magnitude higher than that of methoxycarbonyl etomidate and similar to that of etomidate”, the “in vivo duration of action compared with methoxycarbonyl etomidate and etomidate” value (rats; rat, in vivo) was “intermediate between those of methoxycarbonyl etomidate and etomidate” and the “effect on binding of [3H]-flunitrazepam” value (GABAA receptor channel) was “no effect”. For the same compound, the “effect on binding of [3H]-muscimol” value (GABAA receptor channel) was “no effect”, the EC50 [6] was 5.8 ± 1.1 µM and the “concentration having minimal effects on current” value [6] was about 0.3 µM. For the same compound, the logD [7] was 2.62, the “minimum effective continuous infusion dose rate (infusion MED)” value (beagle dogs; dogs) was “approximately 0.5 mg/kg/min” and the emergence from anesthesia (beagle dogs; [9]) was “approximately 5 minutes”. For the same compound, the “recovery of apparently normal behavior” value (beagle dogs; [9]) was 10 to 12 min, the “minimally effective anesthetic dose (MED)” value (beagle dogs; dogs, IV bolus) was “approximately 1 mg/kg” and the duration of anesthesia (beagle dogs; dogs, bolus dose of 3 or 4 mg/kg) was 3 to 6 min. For the same compound, the “context dependence of recovery from anesthesia” value (beagle dogs; dogs, bolus vs 30- or 120-minute infusion) was “context-independent” and the “anesthesia onset after initiation of infusion” value (beagle dogs; two dogs, 1 mg/kg/min IV infusion without bolus) was 2.5 to 4.0 min.
